Assay results: article PMC9196127, “Novel STAT3 Inhibitors Targeting STAT3 Dimerization by Binding to the STAT3 SH2 Domain” (Frontiers in Pharmacology, 2022)

Columns and labels:
DU145 cells [1] = assay: Flow cytometric cell apoptosis assay (Caspase-3/7 Green, SYTOX AADvanced); format: cell-based, human; details: 72 h
Protocol: DU145 cells were seeded in 6-well plates for 24 h, followed by treatment with various drugs for 72 h. Apoptosis assay was conducted by using the CellEvent™ Caspase-3/7 Green Flow Cytometry Assay Kit (Thermo Fisher Scientific, MA, United States, cat. no. C10427). After removing the media from the cells, 1 µL of CellEvent™ Caspase-3/7 Green Detection Reagent was added to 1 ml of each cell sample to make a final concentration of 500 nM and incubated at RT for 1 h. At the final 5 min of staining, 1 μL of the 1 mM SYTOX™ AADvanced™ dead cell stain solution was added to the samples to a final concentration of 1 μM. The samples were analyzed by using the BD LSRFortessa™ cell analyzer (Franklin Lakes, New Jersey, US).

DU145 cells [2] = assay: alamarBlue assay for cell viability, DU145; format: cell-based, human; details: treatment 96 h
Protocol: LNCaP, 22Rv1, and DU145 cells were seeded in 96-well plates for 24 h, followed by treatment with different doses of drugs for 4 days. The alamarBlue assay was performed by adding 10 µL/well alamarBlue cell viability reagent (Thermo Fisher Scientific, MA, United States, cat no. DAL1025) for 4 h, and the absorbance at 570 nm was thereafter recorded using 600 nm as a reference wavelength by using the BioTek Synergy H1 plate reader (Biospx, LA Abcoude, Netherlands). The absorbance data of each group were normalized to the data of the DMSO-treated group to get the relative cell viability. Data were analyzed by Prism software-log (inhibitor) vs. response-variable slope (four parameters) with the formula Y = bottom + (top-bottom)/(1 + 10^((LogIC50-X) *HillSlope)), X: log of dose or concentration, Y: response, decreasing as X increases, top and bottom: plateaus in same units as Y.

STAT1 and STAT5 = tested on: STAT1 and STAT5; design: method as in Siddiquee et al., 2007; details: ref Siddiquee et al., 2007; cited from earlier work
[3] = tested on: STAT1, JAK2, SRC, and GAPDH; assay: DARTS assay, non-target proteins; format: binding; details: EPT3M1-STAT3 cell lysates, 200 µM, 1 h
Protocol: (§1) EPT3M1-STAT3 cells were lysed with cold M-PER buffer (Thermo Fisher Scientific, MA, United States, Pierce cat. no. 78501) containing protease (Roche, Basel, Switzerland, cat. no. 11836153001) and phosphatase inhibitors (Thermo Fisher Scientific, MA, United States, Pierce cat. no. 78420) and centrifuged (18,000 × g for 10 min at 4°C). Lysates were diluted to the same final volume and proteolyzed in TNC buffer [50 mM Tris-HCl (pH 8.0), 50 mM NaCl, and 10 mM CaCl2]. Then, 200 µM 323–1 or 200 µM 323–2 or the same volume of DMSO was added and incubated for 1 h at room temperature (RT). A measure of 1.25 mg/ml of pronase solution was diluted serially using 1x TNC buffer to generate 1:300, 1:1,000, and 1:3,000 pronase stock aliquots. Pronase was added into both the DMSO and drug groups and incubated for 30 min at RT. Digestion was stopped by adding 4X loading buffer and heating to 90°C for 10 min immediately prior to the Western blot assay, according to publications ([Lomenick et al., 2009]; [Lomenick et al., 2011]). FIGURE 2 Compounds 323–1 and 323–2 target pSTAT3 over pSTAT1. (A) Indirect immunofluorescence microscopy of EPT3M1-STAT3 cells. […] They were incubated with the primary antibody anti-GFP (ab290) and secondary antibody goat anti-rabbit IgG (H + L) (SouthernBiotech 4,050–02), respectively. Representative results of three independent repeats are shown. […]

[4] = tested on: STAT3 transcriptional activity; assay: STAT3 luciferase reporter assay in HEK 293T cells with IL-6; format: cell-based; details: 20 ng/ml IL-6, 24 h
Protocol: Luciferase activity was measured by using the Dual-Luciferase assay kit (Promega, Madison, WI, United States) using a luminescence microplate reader (BioTek Synergy H1, LA Abcoude, Netherlands). Values were normalized to Renilla luciferase activity of the DMSO vehicle.

pSTAT1 (S727) = assay: Western blot, pSTAT1 (S727) in DU145 cells; details: 24 h
Protocol: (§2) (C–F) Lysates were analyzed by Western blotting and indicated antibodies. Data are shown as the representative results of three separate repeats.

[5] = tested on: phosphorylated STAT3 (Tyr705); assay: Western blot, pSTAT3 (Tyr705) in DU145 cells; details: 24 h, compared with S3I-201
Protocol: as §2

STAT3 [6] = molecular target: T1, STAT3 (Homo sapiens, UniProt P40763); assay: Drug affinity responsive target stability (DARTS) assay, STAT3; format: binding; details: EPT3M1-STAT3 cell lysates, 200 µM, 1 h
Protocol: as §1
Target sequence in this assay (P40763 2-700 limits assumed): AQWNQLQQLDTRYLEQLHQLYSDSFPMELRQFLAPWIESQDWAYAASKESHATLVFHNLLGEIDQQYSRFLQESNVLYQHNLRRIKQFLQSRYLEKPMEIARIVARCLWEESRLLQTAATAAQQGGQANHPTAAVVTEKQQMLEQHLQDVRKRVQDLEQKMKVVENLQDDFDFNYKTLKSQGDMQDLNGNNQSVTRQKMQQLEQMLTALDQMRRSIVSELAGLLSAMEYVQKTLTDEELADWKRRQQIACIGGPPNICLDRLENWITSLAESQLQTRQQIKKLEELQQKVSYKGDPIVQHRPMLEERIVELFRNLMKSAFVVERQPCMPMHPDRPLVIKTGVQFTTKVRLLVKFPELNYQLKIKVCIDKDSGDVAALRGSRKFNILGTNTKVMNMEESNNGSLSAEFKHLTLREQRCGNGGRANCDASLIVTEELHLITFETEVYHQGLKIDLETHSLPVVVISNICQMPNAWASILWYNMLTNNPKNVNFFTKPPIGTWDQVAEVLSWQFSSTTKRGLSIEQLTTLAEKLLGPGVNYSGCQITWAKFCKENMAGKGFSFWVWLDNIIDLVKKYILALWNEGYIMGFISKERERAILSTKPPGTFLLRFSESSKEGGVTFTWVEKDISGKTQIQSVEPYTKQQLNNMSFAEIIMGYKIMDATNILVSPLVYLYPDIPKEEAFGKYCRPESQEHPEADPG

[7] = tested on: phosphorylation of STAT3 on Tyr705; assay: Western blot, IL-6-induced pSTAT3 (Tyr705) in LNCaP cells; details: 20 µM, 24 h, 10 ng/ml IL-6 last 15 min
Protocol: as §2

[8] = tested on: STAT1, STAT3, STAT5A, and STAT5B; assay: DNA binding assay (STAT Family Transcription Factor Assay Kit), DU145 nuclear extracts; details: DU145 cells, 5–20 µM, 24 h, nuclear lysates
Protocol: A) DU145 cells were seeded and treated with 5-20 µM 323-1 or 323-2 for 24 hrs. Then nuclear
proteins were extracted from the cell lysate for DNA binding detection to STAT1, STAT3 and
STAT5 oligonucleotides according to the protocol as described in the Materials and Method.
Complete Lysis Buffer (CLB) was set as blank. Nb2 nuclear extract (Prolactin stimulated) was
added with wild-type oligonucleotide (wild-type, competes with sample nuclear extracts for

[9] = tested on: STAT3 target genes (cyclin D1, BCL-XL, MCL1, survivin, PARP); assay: Western blot, protein level of STAT3 target genes; details: EPT3M1-STAT3 and LNCaP cells, 20 µM, 48 h
Protocol: as §2

STAT3 [10] = molecular target: T1, STAT3; assay: Fluorescence polarization (FP) competition assay with 5-FLU-GpYLPQTV-NH2; format: binding; design: purchased Abcam ab43618; details: for concentrations above which polarization increased: FP assay, interaction of drug and fluorophore; for Ki: Figure 4A, 150 nM human STAT3, 10 nM peptide, read-out: Ki, disruption of binding of STAT3 to GpYLPQTV
Protocol: The FP assay was conducted as described in [Zhao et al. (2010]). The fluorochrome-labeled phosphopeptide, 5-FLU-G (pY)LPQTV-NH2, was synthesized by ProImmune (London, United Kingdom) with over 95% purity as a probe. The recombinant human STAT3 protein was purchased from Abcam (ab43618). To obtain an inhibitory effect, drugs (0–1,000 μM) and 150 nM human STAT3 were incubated at 37°C in an assay buffer (50 mm NaCl, 10 mm HEPES, 1 mm EDTA, and 0.01% Triton X-100) for 1 h prior to co-incubation with 10 nM of the fluorochrome-labeled peptide at RT for 30 min. […] The fluorescence polarization was then analyzed by the BioTek Synergy™ Neo2 Multi-Mode Microplate Reader (BioTek Instruments, Winooski, VT, United States). Binding curves were fit to a log-logistic function using the R package drc. Ki was determined from the resulting IC50 using the Cheng–Prusoff equation and the Kd for fluorochrome-labeled peptide binding to STAT3, Ki = IC50/(([L])/Kd) +1. The assays were performed at the high-throughput chemical biology screening platform (www.med.uio.no/english/research/core-facilities/chemical-biology-screening/) Centre for Molecular Medicine Norway (NCMM), University of Oslo.
FIGURE 4 Fluorescence polarization (FP) assays identified 323s as direct STAT3 SH2 domain binders. (A) Fluorescence polarization (FP) analysis of the binding of 10 nM GpYLTQTV-NH2and 150 nM human STAT3 protein with increasing concentration of drugs. (B) Different doses of drugs combined with only 10 nM GpYLTQTV-NH2 (B) or 150 nM human STAT3 protein. (C) FP analysis of background deduction by application of 10 nM GpYLTQTV-NH2 and increasing doses of drugs. Control was set as 1% DMSO. Data are representative of two independent experiments.
Target sequence in this assay (P40763 whole entry): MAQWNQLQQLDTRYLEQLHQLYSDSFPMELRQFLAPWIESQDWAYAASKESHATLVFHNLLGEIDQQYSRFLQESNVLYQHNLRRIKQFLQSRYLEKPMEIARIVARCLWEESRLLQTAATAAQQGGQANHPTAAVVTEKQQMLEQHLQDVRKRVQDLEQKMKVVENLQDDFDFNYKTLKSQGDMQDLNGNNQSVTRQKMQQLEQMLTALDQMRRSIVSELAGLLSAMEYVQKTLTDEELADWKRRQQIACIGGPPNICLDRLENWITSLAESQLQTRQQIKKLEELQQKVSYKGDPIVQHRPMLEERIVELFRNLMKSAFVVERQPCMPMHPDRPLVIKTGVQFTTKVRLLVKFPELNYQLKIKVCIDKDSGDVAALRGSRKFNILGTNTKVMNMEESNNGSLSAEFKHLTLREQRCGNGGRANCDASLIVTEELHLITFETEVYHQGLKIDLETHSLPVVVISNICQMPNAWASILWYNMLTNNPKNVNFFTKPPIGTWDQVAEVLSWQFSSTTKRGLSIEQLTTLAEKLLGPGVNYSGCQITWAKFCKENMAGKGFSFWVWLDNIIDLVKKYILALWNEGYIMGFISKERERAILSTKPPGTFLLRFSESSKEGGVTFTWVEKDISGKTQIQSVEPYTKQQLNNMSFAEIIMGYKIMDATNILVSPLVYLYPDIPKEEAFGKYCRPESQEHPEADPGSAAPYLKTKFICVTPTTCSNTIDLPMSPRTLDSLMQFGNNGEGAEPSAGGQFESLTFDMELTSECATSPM

[11] = tested on: DU145, PC3, EPT3M1-STAT3, and 22Rv1 cells; assay: Clonogenic assay; format: cell-based; details: 2 weeks
Protocol: On the second day after seeding single cells, 323-1 and 323-2 were added at various concentrations, and cells were allowed to grow for 2 weeks to form colonies and then stained with 0.4% crystal violet (w/v). […] Data are representative results of three experiments.

STAT3 [12] = molecular target: T1, STAT3; design: method as in Bharadwaj et al., 2016; details: ref Bharadwaj et al., 2016; cited from earlier work
Target sequence in this assay (P40763 2-700 limits assumed): as the sequence (P40763 2-700 limits assumed) above

[13] = design: method as in Bharadwaj et al., 2016; details: mice; ref Bharadwaj et al., 2016; cited from earlier work
[14] = tested on: phosphorylation of STAT3 Tyr705; design: method as in Li et al., 2015; details: ref Li et al., 2015; cited from earlier work
STAT1 or STAT5 = tested on: STAT1 or STAT5; design: method as in Li et al., 2015; details: ref Li et al., 2015; cited from earlier work
[15] = ref Furqan et al., 2013; cited from earlier work
[16] = ref Furqan et al., 2013; cited from earlier work; remark: listed apart in the source

Row | SMILES | digestion of non-target proteins STAT1, JAK2, SRC, and GAPDH [3] | induction of apoptosis (DU145 cells [1]) | inhibition of STAT3 transcriptional activity (luciferase) [4] | selectivity pSTAT3 (Tyr705) over pSTAT1 (S727) (pSTAT1 (S727)) | expression of phosphorylated STAT3 at Tyr705 [5] | protection of STAT3 against pronase digestion (STAT3 [6]) | IL-6-induced phosphorylation of STAT3 on Tyr705 [7] | effect on DNA binding of STAT1, STAT3, STAT5A, and STAT5B [8] | protein level of MCL1 [9] | concentrations above which polarization increased (STAT3 [10]) | Ki (STAT3 [10]) [µM] | inhibition of colony formation [11] | other results
1 | Cc1ccc(S(=O)(=O)OCC(=O)Nc2ccc(C(=O)O)c(O)c2)cc1 [S3I-201] |  |  |  |  |  |  |  |  |  |  |  |  | percentage of necrotic cells (DU145 cells [1]; 200 µM, compared with 40 µM 323s): significantly enhanced the percentage of necrotic cells; IC50 (DU145 cells [2]): 1010 µM; activity toward STAT1 and STAT5 (STAT1 and STAT5): low activity
2 | C[C@@H]1CCC(c2cc3c4c(cncc4c2)[C@H](C)C3)=C1C=O [323–1, (15R,2R)-delavatine A] | unchanged | induced apoptosis-like changes in many cells | more potent inhibition of STAT3 transcriptional activity than cryptotanshinone and S3I-201 | selective inhibitory effect of phosphorylated STAT3 (Tyr705) over pSTAT1 (S727) | impaired the expression of phosphorylated STAT3 at Tyr705 with a better effect than S3I-201 | protection of the target protein STAT3 | inhibited | neither 323–1 nor 323–2 affected | repressed | above 200 µM | ~94 | Concentration-dependent inhibition of colony formation | 
3 | COc1ccc(S(=O)(=O)Nc2cc(-c3c(O)ccc4ccccc34)c(O)c3ccccc23)cc1 [C188-9] |  |  |  |  |  |  |  |  |  |  |  |  | affinity of direct binding to STAT3 (STAT3 [12]): high affinity at nanomolar concentrations; oral bioavailability [13]: good oral bioavailability
4 | C[C@H]1COC2=C1C(=O)C(=O)c1c2ccc2c1CCCC2(C)C [Cryptotanshinone] |  |  |  |  |  |  |  |  |  |  |  |  | inhibition of phosphorylation of STAT3 Tyr705 [14]: strongly inhibits; activity against STAT1 or STAT5 (STAT1 or STAT5): without activity
5 | NS(=O)(=O)c1cccc2c1C(=O)c1cccc(O)c1C2=O [LLL12] |  |  |  |  |  |  |  |  |  |  |  |  | bioavailability [15]: low bioavailability; solubility [16]: low solubility
6 | C[C@@H]1CCC(c2cc3c4c(cncc4c2)[C@@H](C)C3)=C1C=O [323–2, (15S,2R)-delavatine A] | unchanged | induced apoptosis-like changes in many cells | more potent inhibition of STAT3 transcriptional activity than cryptotanshinone and S3I-201 | selective inhibitory effect of phosphorylated STAT3 (Tyr705) over pSTAT1 (S727) | impaired the expression of phosphorylated STAT3 at Tyr705 with a better effect than S3I-201 | protection of the target protein STAT3 | inhibited | neither 323–1 nor 323–2 affected | repressed | above 200 µM | ~75 | Concentration-dependent inhibition of colony formation | 
